From PMC9693223 (Molecules, 2022)

Assays:
[1] = tested on: L. mexicana Cas9 promastigotes; assay: Alamar blue drug sensitivity assay, L. mexicana Cas9 promastigotes; assay type: cell-based, Leishmania mexicana; details: Leishmania mexicana, 120 h, 72 h + 48 h resazurin, at least 3 independent determinations, read-out: EC50 (µM) AVG ± SEM, Cas9
Summary of the method: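 Promastigotes cultured in HOMEM with 10% FBS at 25 °C were added as a 2 × 10^6 cells mL^−1 culture to 23-point compound dilutions. After 72 h at 25 °C, resazurin was added for a further 48 h, and fluorescence was read at ex 544/em 620 nm. EC50 came from a variable-slope sigmoid fit (3–4 independent experiments).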

[2] = tested on: L. mexicana Cas9^ΔNT1 promastigotes; assay: Alamar blue drug sensitivity assay, L. mexicana Cas9^ΔNT1 promastigotes; assay type: cell-based, Leishmania mexicana; details: EC50 Cas9^ΔNT1 relative to L. mexicana Cas9
Text: (§1) We used L. mexicana promastigotes of the Cas9 strain developed by Beneke at al. to generate the ΔNT1 strain, and from there the Cas9^ΔNT1+TcrNT2 (see below); The original Cas9 strain was generously donated by Prof. Eva Gluenz (University of Bern, Switzerland). All strains in standard HOMEM (GIBCO, Life Technologies, Paisley, UK) supplemented with 10% heat-inactivated fetal bovine serum (FBS; PAA Laboratories, Linz, Austria) and 1% of a penicillin–streptomycin solution (10,000 U mL^−1 each; Life Technologies) at 25 °C, as described.
(§2) The Alamar blue assay (resazurin sodium salt) was used to determine the drug sensitivity of the L. mexicana promastigotes in vitro. The assay is based on the reduction of resazurin sodium salt (blue and non-fluorescent) to resorufin (pink color and fluorescent) by live cells. HOMEM medium with 10% FBS (100 μL) was added to all wells of a white 96-well plate apart from the first well. 200 μL of a known concentration of test compounds was diluted in HOMEM medium and placed in the first well. Compounds were tested in one plate and every compound was diluted over two rows (23 concentrations), leaving the last well of every dilution as a negative control having 100 μL HOMEM medium. Next, 100 μL of L. mexicana culture at a density of 2 × 10^6 cells mL^−1 was added into every well in the plate and incubated for 72 h at a temperature of 25 °C after which resazurin sodium salt (Sigma) (20 μL of a solution of 12.5 mg in 100 mL PBS) was added and the plate was incubated under the same conditions for a further 48 h. Fluorescence was measured in a FLUOstar OPTIMA plate reader (BMG Labtech, Germany), at a wavelength of 544 nm for excitation and 620 nm for emission. The EC50 values and fluorescence data were determined and plotted by the GraphPad Prism 8 Software using an equation for a sigmoid curve with variable slope. Pentamidine was used as positive control and every experiment was performed 3–4 times independently.

[3] = tested on: L. mexicana Cas9^ΔNT1+TcrNT2 promastigotes; assay: Alamar blue drug sensitivity assay, L. mexicana Cas9^ΔNT1+TcrNT2 promastigotes; assay type: cell-based, Leishmania mexicana; details: Cas9^ΔNT1+TcrNT2 in comparison to L. mexicana Cas9^ΔNT1
Text: as §1, §2

TcrNT2 = TcrNT2 (Trypanosoma cruzi, UniProt Q4DHG0); assay: Transport of [^3H]-thymidine by TcrNT2 expressed in L. mexicana Cas9^ΔNT1 (Km, inhibition); assay type: cell-based
TcrNT2, sequence (Q4DHG0 entry or part of it): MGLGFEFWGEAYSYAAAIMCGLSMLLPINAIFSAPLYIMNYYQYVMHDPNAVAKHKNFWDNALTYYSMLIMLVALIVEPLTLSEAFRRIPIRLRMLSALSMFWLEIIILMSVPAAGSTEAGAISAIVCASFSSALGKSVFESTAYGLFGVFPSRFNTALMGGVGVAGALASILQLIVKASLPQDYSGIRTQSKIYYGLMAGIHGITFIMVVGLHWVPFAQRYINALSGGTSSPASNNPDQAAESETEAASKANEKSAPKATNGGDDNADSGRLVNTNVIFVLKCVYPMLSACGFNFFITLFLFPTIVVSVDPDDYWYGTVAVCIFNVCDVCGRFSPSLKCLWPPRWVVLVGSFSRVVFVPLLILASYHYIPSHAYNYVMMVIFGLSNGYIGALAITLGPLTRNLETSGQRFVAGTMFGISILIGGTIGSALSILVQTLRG
Procedure: These values can be used to calculate the Gibbs free energy of interaction ΔG°, but these experiments cannot distinguish between the test compound being transported or merely binding to the transporter and inhibiting the transit of the [^3H]-thymidine.
Transport assays were conducted with radiolabeled nucleosides [methyl-^3H]-thymidine (20 Ci/mmol; PerkinElmer (Waltham, MA, USA)) and [2,8-^3H]-adenosine (40 Ci/mmol; American Radiolabeled Chemicals (ARC, St-Louis, MO, USA)). Cells were harvested from mid-log phase cultures by centrifugation and washed into an assay buffer (AB) as described, at a density of 1 × 10^8 cells mL^−1. Transport assays were then performed exactly as described previously, using an oil-stop protocol. Briefly, 100 µL of cell suspension (10^7 cells) was mixed with 100 µL of [^3H]-substrate at 2 × final concentration and incubated for a pre-set time prior to the addition of 800 µL of ice-cold AB containing a saturating concentration of unlabeled permeant (usually 1 or 2.5 mM) and immediate centrifugation through an oil layer to separate cells from extracellular radiolabel. The 100 µL of [^3H]-substrate could also contain unlabeled substrate or an inhibitor at 2 × concentration, as appropriate. Next, the microfuge tubes were flash frozen in liquid nitrogen; the tips with the cell pellets cut off and collected in scintillation tubes. Cells were solubilized by incubation in 2% SDS under gentle shaking on a rocking platform prior to the addition of scintillation fluid (Scintilogic U, Lablogic, Sheffield, UK). The tubes stored in the dark overnight before counting in a 300SL Hidex Scintillation Counter (Lablogic).
Michaelis-Menten constants (Km) were calculated by plotting transport rates of [^3H]-substrate against the concentration, using the Michaelis-Menten equation V0 = Vmax([substrate]/([substrate] + Km)) and non-linear regression in GraphPad Prism 8. Inhibition constants (Ki) were calculated using the Cheng-Prusoff equation: Ki = IC50/(1 + (L/Km)), where L represents the radiolabel concentration. The IC50 was obtained by a non-linear regression of the inhibition curve of transport rate versus inhibitor concentration, using an equation for a sigmoid curve with variable slope (GraphPad Prism 8). The Gibbs free energy ΔG° was obtained using the equation ΔG° = −RTln(Ki), in which R is the gas constant and T is the absolute temperature. As discussed previously, these equations apply to competitive rather than non-competitive inhibition. Given that only close analogues of the substrate were used as potential inhibitors and that Hill slopes were consistently close to −1, it is very likely that inhibition was indeed competitive.

Leishmania major = tested on: Leishmania major; parameters: method as in PMID 28453984; details: ref [36]; read-out: EC50 against Leishmania major; cited from earlier work
[4] = tested on: bloodstream form T. brucei; parameters: method as in PMID 23188714, PMID 23505454; details: ref [47],[54]; read-out: EC50 against bloodstream form T. brucei; cited from earlier work

Structure (SMILES): O=c1[nH]c(=O)n([C@H]2C[C@H](O)[C@@H](CO)O2)cc1F [5-F-2′-dUrd, 5-F-2′-deoxyuridine]
- EC50 [1]: 2.19 ± 0.11 µM
- RF vs. Cas9 (resistance factor) [2]: 26.6
- RF vs. ΔNT1 (resistance factor) [3]: 14.8
- ΔG° (Gibbs free energy of interaction) (TcrNT2; calculated from Km or Ki at 25 °C): -7.93 kcal/mol
- δ(ΔG°) with respect to ΔG° of thymidine (TcrNT2; change in ΔG° relative to thymidine): -1.03 kcal/mol
- Ki (TcrNT2; read-out: Ki on the transport of [^3H]-thymidine by TcrNT2): 1500 ± 120 nM
- EC50 (Leishmania major): 1400 nM
- EC50 [4]: 5200 nM
